Consider eight compounds from US20250320213A1, “Nitrogen-Containing Heterocyclic Compounds” (Pfizer Inc., priority 2024, published 2025).

The test addresses T1, STAT6 (Homo sapiens, UniProt P42226).
T1 construct: stably transfected HaCaT keratinocyte cell line, which expresses NanoLuc luciferase reporter gene under the transcriptional control of the STAT6 responsive promoter; endogenous in cells; host or cells: HaCaT keratinocyte reporter cell line (stably transfected with a NanoLuc reporter)
T1 sequence (P42226 1-847): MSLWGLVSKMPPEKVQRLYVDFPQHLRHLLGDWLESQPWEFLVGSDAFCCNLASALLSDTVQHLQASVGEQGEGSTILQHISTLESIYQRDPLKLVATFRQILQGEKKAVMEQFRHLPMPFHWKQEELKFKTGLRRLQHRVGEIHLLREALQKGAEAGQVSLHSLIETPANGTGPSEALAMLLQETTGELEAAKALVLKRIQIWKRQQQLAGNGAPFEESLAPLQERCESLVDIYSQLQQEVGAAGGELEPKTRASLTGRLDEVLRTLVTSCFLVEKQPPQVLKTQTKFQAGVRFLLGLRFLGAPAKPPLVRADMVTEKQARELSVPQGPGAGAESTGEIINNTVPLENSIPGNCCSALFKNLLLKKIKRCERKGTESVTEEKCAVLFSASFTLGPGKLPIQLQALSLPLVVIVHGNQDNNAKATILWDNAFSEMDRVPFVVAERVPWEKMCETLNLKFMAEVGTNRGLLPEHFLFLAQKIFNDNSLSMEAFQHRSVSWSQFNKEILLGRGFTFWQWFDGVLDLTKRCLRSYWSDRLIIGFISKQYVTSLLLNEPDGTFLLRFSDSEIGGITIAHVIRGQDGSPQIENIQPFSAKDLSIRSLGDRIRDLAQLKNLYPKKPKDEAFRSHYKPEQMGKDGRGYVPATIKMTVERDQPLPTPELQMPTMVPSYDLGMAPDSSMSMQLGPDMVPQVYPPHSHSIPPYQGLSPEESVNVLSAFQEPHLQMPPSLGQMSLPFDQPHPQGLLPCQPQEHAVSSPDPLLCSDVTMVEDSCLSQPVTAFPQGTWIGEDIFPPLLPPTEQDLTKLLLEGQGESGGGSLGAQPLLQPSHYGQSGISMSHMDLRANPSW
Kind of test: STAT6 Reporter Luciferase Assay (IL-13 stimulated HaCaT keratinocyte NanoLuc reporter cells). The test is classed as cell-based. Conditions: IL-13 stimulated HaCaT STAT6 NanoLuc reporter cells; read-out: Reporter EC50. How it is done: Pharmacological measurements of STAT6 transcriptional activity through the IL-13-IL-13 receptor/IL-4 receptor pathway were made with a stably transfected HaCaT keratinocyte cell line, which expresses NanoLuc luciferase reporter gene under the transcriptional control of the STAT6 responsive promoter for IL-13Ra2. The readout of the STAT6 activity utilized Promega Nano-Glo Luciferase assay kit.
The reporter cells were cultured in a growth media comprised of DMEM High Glucose, no calcium and no glutamine, 10% heat inactivated fetal bovine serum (HI FBS), 1% 100× Glutamax, and 100 U/mL Penicillin-Streptomycin (units of penicillin in 1 mL of streptomycin). Seven thousand cells were plated in 25 microliter (μL) per well in a 384-well, white bottom, tissue culture plate. Cells were cultured overnight at 37° C. The next day, test compounds (solubilized and serially diluted in DMSO, in an 11 point, 4-fold dilution series in duplicate) were spotted, 60 nanoliters (nL) per well, into a 384 well v-bottom polypropylene plate. Thirty μL per well of 37° C. dosing media (Dulbecco's modified eagle medium (DMEM) High Glucose, no calcium and no glutamine with 2% HI FBS) was added to the compound plate. Growth media was removed from the cell plate, and the cells were washed with DPBS. Twenty μL per well of compounds diluted in dosing media were transferred from the compound plate to the cell plate and the compounds were further diluted with an additional 15 μL of dosing media in the cell plate: the cell plate was incubated for two hours at 37° C. After two hours, STAT6 activity was stimulated with the addition of 5 μL per well of IL-13 (R&D Systems) in dosing media with a final concentration of 0.12 nM IL13. Cells were incubated at 37° C. for 4 hours to allow for reporter gene expression, then all media was removed from the plate. The cell plates were treated with assay buffer and Luciferase substrate from Nano-Glo Luciferase Assay Kit for 15 min and then measured for luminescence on an EnVision 2105 multilabel reader (PerkinElmer).
In the case of `COCCC1(N)CCN(C(=O)Nc2ccc(CNC(=O)c3nn(C(C)C)c4c3CN(c3ccc(C(=O)N(C)C)cc3)C[C@@H]4C)cc2)C1` (single isomer, unassigned) [Example 670, (S)-N-(4-((R*)-3-amino-3-(2-methoxyethyl)pyrrolidine-1-carboxamido)benzyl)-5-(4-(dimethylcarbamoyl)phenyl)-1-isopropyl-7-methyl-4,5,6,7-tetrahydro-1H-pyrazolo[4,3-c]pyridine-3-carboxamide], the EC50 (as a rule, the midpoint of the concentration-response curve) turned out to be 1 nM.

On to `COCCC1(N)CCN(C(=O)Nc2ccc(CNC(=O)c3nn(C(C)C)c4c3CN(c3ccc(C(=O)N(C)C)cc3)C[C@@H]4C)cc2)C1` (single isomer, unassigned) [Example 671, (S)-N-(4-((R*)-3-amino-3-(2-methoxyethyl)pyrrolidine-1-carboxamido)benzyl)-5-(4-(dimethylcarbamoyl)phenyl)-1-isopropyl-7-methyl-4,5,6,7-tetrahydro-1H-pyrazolo[4,3-c]pyridine-3-carboxamide], for which the 50% effective concentration (EC50) amounted to 3 nM.

In the case of `COCC1(N)CCN(C(=O)Nc2ccc(CNC(=O)c3nn(C(C)C)c4c3CN(c3ccc(C(=O)N(C)C)cc3)C[C@@H]4C)cc2)C1` (single isomer, unassigned) [Example 672, (S)-N-(4-((R*)-3-amino-3-(methoxymethyl)pyrrolidine-1-carboxamido)benzyl)-5-(4-(dimethylcarbamoyl)phenyl)-1-isopropyl-7-methyl-4,5,6,7-tetrahydro-1H-pyrazolo[4,3-c]pyridine-3-carboxamide], the EC50 amounted to 1 nM. Under `COCC1(N)CCN(C(=O)Nc2ccc(CNC(=O)c3nn(C(C)C)c4c3CN(c3ccc(C(=O)N(C)C)cc3)C[C@@H]4C)cc2)C1` (single isomer, unassigned) [Example 673, (S)-N-(4-((R*)-3-amino-3-(methoxymethyl)pyrrolidine-1-carboxamido)benzyl)-5-(4-(dimethylcarbamoyl)phenyl)-1-isopropyl-7-methyl-4,5,6,7-tetrahydro-1H-pyrazolo[4,3-c]pyridine-3-carboxamide] stands 2 nM. Consider `CC(C)n1nc(C(=O)NCc2ccc(NC(=O)N3CCN(C)CC3)cc2)c2c1C(C(F)(F)F)CN(c1ccc(C(=O)N(C)C)cn1)C2` (single isomer, unassigned) [Example 692, rel-(R or S)-5-(5-(dimethylcarbamoyl)pyridin-2-yl)-1-isopropyl-N-(4-(4-methylpiperazine-1-carboxamido)benzyl)-7-(trifluoromethyl)-4,5,6,7-tetrahydro-1H-pyrazolo[4,3-c]pyridine-3-carboxamide], for which the EC50 was 0.3 nM. As for `CC(C)n1nc(C(=O)NCc2ccc(NC(=O)N3CCN(C)CC3)cc2)c2c1C(C(F)(F)F)CN(c1ccc(C(=O)N(C)C)cn1)C2` (single isomer, unassigned) [Example 693, rel-(R or S)-5-(5-(dimethylcarbamoyl)pyridin-2-yl)-1-isopropyl-N-(4-(4-methylpiperazine-1-carboxamido)benzyl)-7-(trifluoromethyl)-4,5,6,7-tetrahydro-1H-pyrazolo[4,3-c]pyridine-3-carboxamide], the EC50 is 16 nM. Take `CCn1nc(C(=O)NCc2ccc(NC(=O)N3CCN(C)CC3)cc2)c2c1C(C(F)(F)F)CN(c1ccc(C(=O)N(C)C)cn1)C2` (single isomer, unassigned) [Example 694, rel-(R or S)-5-(5-(dimethylcarbamoyl)pyridin-2-yl)-1-ethyl-N-(4-(4-methylpiperazine-1-carboxamido)benzyl)-7-(trifluoromethyl)-4,5,6,7-tetrahydro-1H-pyrazolo[4,3-c]pyridine-3-carboxamide]: the EC50 amounted to 0.3 nM. For `CCn1nc(C(=O)NCc2ccc(NC(=O)N3CCN(C)CC3)cc2)c2c1C(C(F)(F)F)CN(c1ccc(C(=O)N(C)C)cn1)C2` (single isomer, unassigned) [Example 695, rel-(R or S)-5-(5-(dimethylcarbamoyl)pyridin-2-yl)-1-ethyl-N-(4-(4-methylpiperazine-1-carboxamido)benzyl)-7-(trifluoromethyl)-4,5,6,7-tetrahydro-1H-pyrazolo[4,3-c]pyridine-3-carboxamide], the EC50 was determined as 32 nM.
